According to article PMC5641942 (Physiological Reports, 2017):
“Also recorded” adds a separate entry of the source. Read-outs that look alike come from different tables or passages of the source.

What was measured:
TauT [1] = molecular target: T1, TauT (Homo sapiens, UniProt P31641); assay: Taurine (52 nmol/L) uptake in Caco-2 cells at pH 7.4 in the presence of amino acids; format: cell-based; parameters: endogenous in cells; host or cells: Caco-2; details: pH 7.4, 0.052 μmol/L taurine
T1 sequence (P31641 1-620): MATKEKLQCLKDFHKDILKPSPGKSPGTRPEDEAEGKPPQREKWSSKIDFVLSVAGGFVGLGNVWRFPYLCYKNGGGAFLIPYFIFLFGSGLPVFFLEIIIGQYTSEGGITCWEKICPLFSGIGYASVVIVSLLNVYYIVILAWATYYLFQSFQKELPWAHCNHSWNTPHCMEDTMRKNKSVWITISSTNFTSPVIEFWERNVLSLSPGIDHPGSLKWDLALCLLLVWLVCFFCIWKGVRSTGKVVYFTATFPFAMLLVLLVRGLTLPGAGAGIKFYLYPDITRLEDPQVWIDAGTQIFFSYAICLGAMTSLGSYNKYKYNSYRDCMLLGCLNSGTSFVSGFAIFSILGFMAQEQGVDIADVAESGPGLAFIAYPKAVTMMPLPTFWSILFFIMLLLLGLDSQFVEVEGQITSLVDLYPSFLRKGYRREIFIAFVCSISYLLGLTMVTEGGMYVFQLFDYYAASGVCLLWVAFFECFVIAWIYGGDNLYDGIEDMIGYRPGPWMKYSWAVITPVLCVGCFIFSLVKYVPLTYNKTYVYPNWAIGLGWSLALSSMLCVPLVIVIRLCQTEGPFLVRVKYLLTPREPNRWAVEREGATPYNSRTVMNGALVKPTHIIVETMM
Source text: […]. […] […].

TauT [2] = molecular target: T1, TauT; details: pH 7.4/7.4, 0.052 μmol/L taurine, 20 mg/mL test substance
PAT1 [3] = molecular target: T2, PAT1 (Rattus norvegicus, UniProt Q924A5); assay: Oral taurine pharmacokinetics with co-administered BCH or Pro and Sar; format: in vivo, male Sprague-Dawley rats; details: oral 30 mg/kg taurine, 200 mg/kg BCH
T2 construct: tissue Charles River Deutschland; host or cells: intestine of living male Sprague-Dawley rats (oral dosing)
T2 sequence (Q924A5 whole entry): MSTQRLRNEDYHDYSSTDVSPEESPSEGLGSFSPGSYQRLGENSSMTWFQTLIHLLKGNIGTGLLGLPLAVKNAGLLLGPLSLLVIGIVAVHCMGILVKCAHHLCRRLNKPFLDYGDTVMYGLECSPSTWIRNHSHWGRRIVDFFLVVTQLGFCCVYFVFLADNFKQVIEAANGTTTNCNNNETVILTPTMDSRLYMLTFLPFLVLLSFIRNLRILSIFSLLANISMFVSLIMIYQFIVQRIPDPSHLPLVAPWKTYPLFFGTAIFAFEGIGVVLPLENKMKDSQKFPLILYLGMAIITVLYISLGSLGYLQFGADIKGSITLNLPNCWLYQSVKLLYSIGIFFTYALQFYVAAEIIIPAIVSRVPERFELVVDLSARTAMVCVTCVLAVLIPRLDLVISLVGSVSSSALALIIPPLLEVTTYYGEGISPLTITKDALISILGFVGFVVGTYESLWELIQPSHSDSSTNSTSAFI
Experimental: (§1) The pH was adjusted with NaOH or HCl to 7.40 ± 0.05.
(§2) The animals were acclimatized for a minimum of 5 days in groups of two and maintained on standard feed with free access to water. Prior to dosing, the animals were fasted for 16–20 h with free access to water.
(§3) Plasma was harvested immediately by 10 min of centrifugation at 4°C, 3600g (Multifuge 1 S‐R, Heraeus, Hanau, Germany) and stored in polypropylene tubes (Pony Vial, PerkinElmer, Waltham, MA, USA) at −20°C until analysed. At the end of the experiment, animals were sacrificed by spinal dislocation using a guillotine. Plasma samples were left to defrost and mixed with 4 mL of liquid scintillation cocktail. The samples were counted for 3 min on a scintillation counter from Tri‐Carb 2900TR.
Based on this V d1, volume of distribution in the central compartment 1; V d2, volume of distribution in the peripheral compartment 2; AUC, area under the curve; and K10, the elimination rate from the central department, were calculated using Phoenix® 6.3 version (Pharsight Corporation, A Certara Company, USA). […] C max and t max were found as mean values of the plasma concentration profiles within each group. […] The total clearance was calculated as dose divided by AUC.

PAT1 [4] = molecular target: T3, PAT1 (Homo sapiens, UniProt Q7Z2H8); details: pH 6.0, 100 μmol/L taurine
T3 sequence (Q7Z2H8 whole entry): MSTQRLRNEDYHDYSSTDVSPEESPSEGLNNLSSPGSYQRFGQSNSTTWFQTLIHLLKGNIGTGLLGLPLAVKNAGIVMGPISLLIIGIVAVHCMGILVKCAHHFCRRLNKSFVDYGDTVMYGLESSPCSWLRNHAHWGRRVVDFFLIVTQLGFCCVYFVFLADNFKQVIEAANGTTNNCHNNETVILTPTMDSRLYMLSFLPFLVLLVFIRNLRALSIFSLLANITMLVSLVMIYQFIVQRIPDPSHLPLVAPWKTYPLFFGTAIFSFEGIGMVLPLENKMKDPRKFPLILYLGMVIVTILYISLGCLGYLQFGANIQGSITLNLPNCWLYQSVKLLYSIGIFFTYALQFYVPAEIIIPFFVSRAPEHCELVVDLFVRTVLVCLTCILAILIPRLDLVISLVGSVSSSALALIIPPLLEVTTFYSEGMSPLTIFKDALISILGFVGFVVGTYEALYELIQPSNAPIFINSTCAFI
Experimental: (§5) After the 5 min incubation, the isotope‐containing buffer solution was removed and the wells were washed three times with 500 μL ice‐cold HEPES‐buffer, pH 7.4. The cells were detached using 200 μL of 0.1% Triton X‐100, and transferred to scintillation plastic vials and 2 mL of scintillation cocktail was added.

PAT1 [5] = molecular target: T3, PAT1; details: donor pH 6.0, 100 μmol/L taurine, 20 mg/mL test substance
PAT1 and TauT = assay: Taurine (52 nmol/L) uptake in Caco-2 cells at pH 6.0 in the presence of amino acids; format: cell-based, human; details: pH 6.0, 0.052 μmol/L taurine
Experimental: as §5

[6] = Intravenous taurine pharmacokinetics in rats; format: in vivo, male Sprague-Dawley rats; details: for A / B / α / β: two-compartment model; for clearance / AUC(0-inf): male, Sprague-Dawley, rat, plasma; for clearance: iv
Experimental: as §1, §2, §3
(§4) Based on this V d1, volume of distribution in the central compartment 1; V d2, volume of distribution in the peripheral compartment 2; AUC, area under the curve; and K10, the elimination rate from the central department, were calculated using Phoenix® 6.3 version (Pharsight Corporation, A Certara Company, USA). […] C max and t max were found as mean values of the plasma concentration profiles within each group. Area under the plasma concentration versus time profiles (AUC), an expression of total exposure, were determined with noncompartmental analysis using the linear trapezoidal rule from time zero to C max and by log linear methods from C max to the last measured plasma concentration and denoted AUC0‐tlast, k e is the first order elimination rate constant calculated as the slope from the terminal log plasma concentration time curve of individual animals. The total clearance was calculated as dose divided by AUC.

[7] = parameters: method as in Sved et al. (2007); details: male Sprague-Dawley rats, ref Sved et al. (2007), cited from earlier work
TauT [8] = molecular target: T1, TauT; assay: Concentration-dependent taurine uptake in Caco-2 cells at pH 7.4; format: in vitro ADME; parameters: endogenous in cells; host or cells: Caco-2; details: for K m of saturable taurine uptake: Caco-2, pH 7.4, 0.052–100 μmol/L taurine, 5 min
Experimental: Polycarbonate membranes (1.12 cm^2, 0.4 μm pore size) of TranswellTM inserts or 24-well cell culture plates (1.90 cm^2) were used as supports for cell cultivation. […] Experiments were performed 6 days after seeding the Caco-2 cells cultured on 24 wells plates or performed 13-15 days postseeding cells on TranswellTM insert. […] The culture medium was changed every 2-3 days. […] HBSS buffer consisted of in mM: […] KCl, 5.33; […] NaCl, 138; […] Nohr et al. 2014b).

TauT [9] = molecular target: T1, TauT; details: pH 6.0, 52 nmol/L taurine
[10] = parameters: method as in Yu et al. 2013; details: beagle dogs, noncompartmental analysis; ref Yu et al. 2013; cited from earlier work
[11] = Oral taurine pharmacokinetics in rats; format: in vivo; details: male, Sprague-Dawley, rat, plasma, median [Q1, Q3]
[12] = Oral taurine pharmacokinetics in rats; format: in vivo, male Sprague-Dawley rats; details: for AUC: read-out: AUC0‐tlast (converted); for k el: read-out: k e (converted)
Experimental: as §1, §2, §3, §4

[13] = male, Sprague-Dawley, rat, plasma, oral 10 mg/kg
[14] = male, Sprague-Dawley, rat, plasma, oral 30 mg/kg
[15] = male, Sprague-Dawley, rat, plasma, oral 100 mg/kg
[16] = male, Sprague-Dawley, rat, plasma, oral 299 mg/kg
[17] = male, Sprague-Dawley, rat, plasma, oral 997 mg/kg

In the case of `O=C(O)[C@@H]1CCCN1` [Pro, L‐proline], the “effect on taurine uptake” value (TauT [1]; 10 mmol/L test substance) is reported as “not affected” and the “effect on absorptive (A-B) permeability of taurine” value (shortened to “effect on absorptive”) (TauT [2]) is reported as “did not significantly decrease”.
For `NC1(C(=O)O)CC2CCC1C2` (stereo not drawn) [BCH, 2‐Amino‐2‐norbornanecarboxylic acid], the “effect on taurine uptake” value (TauT [1]; 10 mmol/L test substance) was “not affected”, the “effect on taurine plasma concentration versus time profile (AUC0‐tlast, t max, C max)” value (PAT1 [3]) was “similar; also recorded: did not have any significant effect” and the “effect on taurine uptake” value (PAT1 [4]; 10 mmol/L test substance) was “not affected significantly”. The “effect on taurine uptake” value (PAT1 [4]; 20 mg/mL test substance) was “did not affect”, the “effect on absorptive” value (PAT1 [5]) was “did not alter” and the “effect on taurine uptake” value (PAT1 and TauT; 10 mmol/L test substance) was “not affected”. For the same compound, the “effect on taurine uptake” value (PAT1 and TauT; 20 mg/mL test substance) was “did not affect” and the “effect on absorptive” value (TauT [2]) was “did not significantly decrease”.
In the case of `NCCS(=O)(=O)O` [Taurine, 2‐aminoethane sulfonic acid], the “AUC0‐∞/dose” value ([6]; IV 1 mg/kg) is reported as 89 ± 18.9 μg·min/mL pr. mg/kg, the K10 ([6]; IV 1 mg/kg) is reported as 0.04 ± 0.01 min⁻¹ and the “V d1” value ([6]; IV 1 mg/kg) is reported as 0.299 ± 0.048 L/kg. The “V d2” value ([6]; IV 1 mg/kg) was 4.608 ± 0.974 L/kg, the A ([6]; IV 1 mg/kg) was 3.5 ± 0.5 µg/mL and the B ([6]; IV 1 mg/kg) was 0.12 ± 0.03 µg/mL. The α ([6]; IV 1 mg/kg) was 0.14 ± 0.02 min⁻¹, the β ([6]; IV 1 mg/kg) was 1.9 ± 0.4 1/min *10^−3 and the “AUC0‐∞/dose” value ([6]; IV 10 mg/kg) was 59 ± 19.0 μg·min/mL pr. mg/kg. The K10 ([6]; IV 10 mg/kg) was 0.06 ± 0.01 min⁻¹, the “V d1” value ([6]; IV 10 mg/kg) was 0.353 ± 0.062 L/kg and the “V d2” value ([6]; IV 10 mg/kg) was 4.662 ± 1.153 L/kg. The A ([6]; IV 10 mg/kg) was 31.0 ± 4.2 µg/mL, the B ([6]; IV 10 mg/kg) was 0.89 ± 0.14 µg/mL and the α ([6]; IV 10 mg/kg) was 0.144 ± 0.03 min⁻¹. The β ([6]; IV 10 mg/kg) was 3.0 ± 0.9 1/min *10^−3, the “AUC0‐∞/dose” value ([6]; IV 30 mg/kg) was 115 ± 39.2 μg·min/mL pr. mg/kg and the K10 ([6]; IV 30 mg/kg) was 0.03 ± 0.01 min⁻¹. For the same compound, the “V d1” value ([6]; IV 30 mg/kg) was 0.323 ± 0.063 L/kg, the “V d2” value ([6]; IV 30 mg/kg) was 8.374 ± 4.466 L/kg and the B ([6]; IV 30 mg/kg) was 1.87 ± 0.45 µg/mL. The α ([6]; IV 30 mg/kg) was 0.07 ± 0.01 min⁻¹, the β ([6]; IV 30 mg/kg) was 1.3 ± 0.6 1/min *10^−3 and the clearance ([6]; 1 mg/kg, IV 1 mg/kg, read-out: CL) was 11.7 ± 1.3 mL/min/kg. For the same compound, the clearance ([6]; 10 mg/kg, IV 10 mg/kg, read-out: CL) was 18.7 ± 2.54 mL/min/kg, the clearance ([6]; 30 mg/kg, IV 30 mg/kg, read-out: CL) was 9.4 ± 1.42 mL/min/kg and the clearance ([6]; IV 1–30 mg/kg, compartmental analysis, read-out: clearance) was 9 to 18 mL/min/kg. It also gave an AUC(0-inf) ([6]; IV 1 mg/kg) of 1.48 µg·h/mL, an AUC(0-inf) ([6]; IV 10 mg/kg) of 9.78 µg·h/mL and an AUC(0-inf) ([6]; IV 30 mg/kg) of 57.5 µg·h/mL. For the same compound, the AUC ([7]; oral 30 mg/kg) was 236 µg·h/mL, the AUC ([7]; oral 300 mg/kg) was 1760 µg·h/mL and the “V max of saturable taurine uptake” value (TauT [8]; Caco-2, pH 7.4) was 4.6 ± 0.8 pmol/(cm^2·min). For the same compound, the “nonsaturable component, B” value (TauT [8]; Caco-2, pH 7.4) was 5.7e-08 ± 8e-09 cm/min, the “K m of saturable taurine uptake” value (TauT [8]) was 5.6 µM and the “K m of saturable taurine uptake” value (TauT [8]; listed as taurine) was 5.6 ± 2.6 µM. For the same compound, the “TauT share of carrier mediated taurine uptake” value (TauT [9]) was 78%, the clearance [10] was 3.33 mL/min/kg and the Tmax ([11]; oral 100 mg/kg) was 30 min. The Tmax ([11]; oral 299 mg/kg) was 30 min, the Cmax [12, 13] was 2 ± 0.2 µg/mL and the AUC [12, 13] was 3.55 µg·h/mL. The k el [12, 13] was 6.67e-05 s⁻¹, the Cmax [12, 14] was 15.7 ± 2.4 µg/mL and the AUC [12, 14] was 18.6 µg·h/mL. For the same compound, the k el [12, 14] was 0.000117 s⁻¹, the Cmax [12, 15] was 70 ± 6.5 µg/mL and the AUC [12, 15] was 89.9 µg·h/mL. The k el [12, 15] was 0.000167 s⁻¹, the Cmax [12, 16] was 228 ± 16 µg/mL and the AUC [12, 16] was 307 µg·h/mL. For the same compound, the k el [12, 16] was 0.000167 s⁻¹, the Cmax [12, 17] was 643 ± 81 µg/mL and the Tmax ([12]; male, Sprague-Dawley, rat, plasma, oral 997 mg/kg, median [Q1, Q3]) was 45 min. For the same compound, the AUC [12, 17] was 1320 µg·h/mL, the k el [12, 17] was 0.00015 s⁻¹ and the “AUC0‐∞/dose” value ([12]; oral 10 mg/kg) was 21 ± 1.3 μg·min/mL pr. mg/kg. The “AUC0‐∞/dose” value ([12]; oral 30 mg/kg) was 37 ± 4.5 μg·min/mL pr. mg/kg, the “AUC0‐∞/dose” value ([12]; oral 100 mg/kg) was 54 ± 6.0 μg·min/mL pr. mg/kg and the “AUC0‐∞/dose” value ([12]; oral 299 mg/kg) was 62 ± 6.7 μg·min/mL pr. mg/kg. The “AUC0‐∞/dose” value ([12]; oral 997 mg/kg) was 79 ± 6.7 μg·min/mL pr. mg/kg.
With `CNCC(=O)O` [Sar, sarcosine] the “effect on taurine uptake” value (TauT [1]; 10 mmol/L test substance) was “not affected”, the “effect on taurine uptake” value (TauT [1]; 20 mg/mL test substance) was “decreased” and the “effect on absorptive” value (TauT [2]) was “did not significantly decrease”.
With `O=C(O)Cc1c[nH]cn1` [IAA, imidazole‐4‐acetic acid] the “effect on taurine uptake” value (TauT [1]; 10 mmol/L test substance) was “significantly inhibited”, the taurine uptake (TauT [1]; 10 mmol/L test substance) was “approximately 10 % of the control uptake” and the “effect on taurine uptake” value (PAT1 [4]; 10 mmol/L test substance) was “not affected significantly”. For the same compound, the “effect on taurine uptake” value (PAT1 and TauT; 10 mmol/L test substance) was “significantly inhibited”.
